Where “and” joins values, the source holds several entries; their conditions need not be identical. Equal entries are not always repeated.
Experiment: CNS penetration: total and unbound drug concentrations in tumor regions, CSF and plasma (LC-MS/MS, equilibrium dialysis);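 also: drug levels in patient tumor tissue from contrast-enhancing and non-enhancing regions sampled under MRI-guided neuronavigation, with plasma and CSF drawn during surgical resection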
Details: for Everolimus.CSF / Everolimus.Enhancing.tumor / Everolimus.Non-enhancing.tumor / Everolimus.Plasma.conc / Everolimus.Unbound.enhancing / Everolimus.Unbound.non-enhancing / Everolimus.Unbound.plasma: per patient
[1] = Level 0: Ribociclib 400mg QD + Everolimus 2.5mg QD, sampling 1-3 Hours
[2] = Level 0: Ribociclib 400mg QD + Everolimus 2.5mg QD, sampling 7-9 Hours
[3] = Level 0: Ribociclib 400mg QD + Everolimus 2.5mg QD, sampling 23-25 Hours
[4] = Level 1: Ribociclib 600mg QD + Everolimus 2.5mg QD, sampling 1-3 Hours
[5] = Level 1: Ribociclib 600mg QD + Everolimus 2.5mg QD, sampling 7-9 Hours
[6] = Level 2: Ribociclib 600mg QD + Everolimus 5mg QD, sampling 7-9 Hours
[7] = Level 3: Ribociclib 600mg QD + Everolimus 10mg QD, sampling 7-9 Hours
[8] = Level 4: Ribociclib 600mg QD + Everolimus 50mg once on Day 5, sampling 7-9 Hours
[9] = Level 5: Ribociclib 600mg QD + Everolimus 60mg once on Day 5, sampling 7-9 Hours

SMILES: CO[C@H]1C[C@@H]2CC[C@@H](C)[C@@](O)(O2)C(=O)C(=O)N2CCCC[C@H]2C(=O)O[C@H]([C@H](C)C[C@@H]2CC[C@@H](OCCO)[C@H](OC)C2)CC(=O)[C@H](C)/C=C(\C)[C@@H](O)[C@@H](OC)C(=O)[C@H](C)C[C@H](C)/C=C/C=C/C=C/1C [Everolimus, everolimus]
- Total everolimus, CSF, MAX (2.5 mg QD 5 days): 0.4 nM
- Total everolimus, CSF, MIN (2.5 mg QD 5 days): BLQ
- Total everolimus, Enhancing tumor, MIN (2.5 mg QD 5 days): BLQ
- Total everolimus, Non-enhancing tumor, MIN (2.5 mg QD 5 days): BLQ
- Total everolimus, CSF, MAX (5 mg QD 5 days): BLQ
- Total everolimus, CSF, MED (5 mg QD 5 days): BLQ
- Total everolimus, CSF, MIN (5 mg QD 5 days): BLQ
- Total everolimus, CSF, MED (10 mg QD 5 days): 1.4 nM
- Total everolimus, CSF, MIN (10 mg QD 5 days): BLQ
- Total everolimus, Enhancing tumor, MIN (10 mg QD 5 days): BLQ
- Total everolimus, CSF, MIN (50 mg single dose): BLQ
- Total everolimus, Non-enhancing tumor, MIN (50 mg single dose): BLQ
- Total everolimus, CSF, MAX (60 mg single dose): 0.57 nM
- Total everolimus, CSF, MED (60 mg single dose): 0.57 nM
- Total everolimus, CSF, MIN (60 mg single dose): BLQ
- Total everolimus, CSF, MAX (70 mg single dose): 11.4 nM
- Total everolimus, CSF, MED (70 mg single dose): 6.35 nM
- Total everolimus, CSF, MIN (70 mg single dose): BLQ
- Everolimus.CSF [1]: BLQ
- Everolimus.Enhancing.tumor [1]: 5.92E-03 and 4.32E-03
- Everolimus.Non-enhancing.tumor [1]: 2.88E-03 and BLQ
- Everolimus.Plasma.conc [1]: 0.02558 and 0.00883
- Everolimus.Unbound.enhancing [1]: BLQ
- Everolimus.Unbound.non-enhancing [1]: BLQ
- Everolimus.Unbound.plasma [1]: BLQ
- Everolimus.CSF [2]: BLQ
- Everolimus.Enhancing.tumor [2]: BLQ and 1.69E-02
- Everolimus.Non-enhancing.tumor [2]: BLQ and 2.24E-03
- Everolimus.Plasma.conc [2]: 0.00955 and 0.00618
- Everolimus.Unbound.enhancing [2]: BLQ
- Everolimus.Unbound.non-enhancing [2]: BLQ
- Everolimus.Unbound.plasma [2]: BLQ
- Everolimus.CSF [3]: BLQ
- Everolimus.Enhancing.tumor [3]: BLQ and 4.44E-03
- Everolimus.Non-enhancing.tumor [3]: BLQ and 5.84E-03
- Everolimus.Plasma.conc [3]: 0.00384 and 0.00714
- Everolimus.Unbound.enhancing [3]: BLQ
- Everolimus.Unbound.non-enhancing [3]: BLQ
- Everolimus.Unbound.plasma [3]: BLQ
- Everolimus.CSF [4]: 3.90E-04
- Everolimus.Enhancing.tumor [4]: 4.40E-03
- Everolimus.Non-enhancing.tumor [4]: 4.72E-03
- Everolimus.Plasma.conc [4]: 0.01738
- Everolimus.Unbound.enhancing [4]: BLQ
- Everolimus.Unbound.non-enhancing [4]: BLQ
- Everolimus.Unbound.plasma [4]: BLQ
- Everolimus.CSF [5]: 2.70E-04 and 3.30E-04
- Everolimus.Enhancing.tumor [5]: 8.34E-02 and 9.20E-03
- Everolimus.Non-enhancing.tumor [5]: 3.53E-02 and 8.80E-03
- Everolimus.Plasma.conc [5]: 0.03462 and 0.01401
- Everolimus.Unbound.enhancing [5]: BLQ
- Everolimus.Unbound.non-enhancing [5]: BLQ
- Everolimus.Unbound.plasma [5]: BLQ
- Everolimus.CSF [6]: BLQ
- Everolimus.Enhancing.tumor [6]: 3.98E-02 and 1.11E-02 and 1.66E-02
- Everolimus.Non-enhancing.tumor [6]: 2.02E-02 and 9.20E-03 and 1.03E-02
- Everolimus.Plasma.conc [6]: 0.0225 and 0.0084 and 0.0281
- Everolimus.Unbound.enhancing [6]: BLQ
- Everolimus.Unbound.non-enhancing [6]: BLQ
- Everolimus.Unbound.plasma [6]: BLQ
- Everolimus.CSF [7]: BLQ and 2.50E-03 and 3.00E-04
- Everolimus.Enhancing.tumor [7]: 6.13E-02 and 2.67E-02 and BLQ
- Everolimus.Non-enhancing.tumor [7]: 3.33E-02 and 4.50E-03 and 5.00E-03
- Everolimus.Plasma.conc [7]: 0.0311 and 0.0616 and 0.0431
- Everolimus.Unbound.enhancing [7]: BLQ
- Everolimus.Unbound.non-enhancing [7]: BLQ
- Everolimus.Unbound.plasma [7]: BLQ
- Everolimus.CSF [8]: BLQ and 3.70E-04 and 1.50E-03
- Everolimus.Enhancing.tumor [8]: 5.16E-02 and 5.45E-02 and 7.41E-02
- Everolimus.Non-enhancing.tumor [8]: 2.51E-02 and 6.30E-03
- Everolimus.Plasma.conc [8]: 0.07949 and 0.06123 and 0.063
- Everolimus.Unbound.enhancing [8]: BLQ
- Everolimus.Unbound.non-enhancing [8]: BLQ
- Everolimus.Unbound.plasma [8]: 4.59E-04 and 2.99E-04 and 3.00E-04
- Everolimus.CSF [9]: 5.70E-04 and BLQ
- Everolimus.Enhancing.tumor [9]: 8.76E-02 and 3.04E-02 and 9.84E-03
- Everolimus.Non-enhancing.tumor [9]: 3.61E-02 and 1.38E-02 and 1.13E-02
- Everolimus.Plasma.conc [9]: 0.07053 and 0.09226 and 0.06809
- Everolimus.Unbound.enhancing [9]: BLQ
- Everolimus.Unbound.non-enhancing [9]: BLQ

From publication PMC13070491, “Single-nucleus transcriptomics, pharmacokinetics, and pharmacodynamics of CDK4/6 and mTOR inhibition in a Phase 0/1 trial of recurrent high-grade glioma” (Neuro-Oncology, 2025)
